From patent US20120202794A1 (priority 2011, published 2012)

Experiments:
HCV Replicon 1b = test: HCV inhibition assay, HCV replicon 1b (Clone A or ET-lunet cells; RT-PCR or luciferase reporter); type: cell-based; details: Hepatitis C virus, 96 h, HCV replicon 1b; 4 days incubation; read-out: Replicon 1b potency EC90
Method: HCV inhibition assay. Clone A or ET-lunet cells were seeded at a density of 1500 or 3000 cells per well in a 96-well plate, respectively. Test compounds serially diluted in culture medium without G418 were added to cells so that the final DMSO concentration was 0.5%. Plates were incubated at 37° C. in a 5% CO2 atmosphere for 4 days. Inhibition of HCV RNA replication was determined by real time PCR (RT-PCR) or by measuring the levels of luminescence expressed via the luciferase reporter gene encoded within the ET replicon. Briefly, for the RT-PCR assay, total RNA was extracted using the RNeasy-96 kit as recommended by the manufacturer (Qiagen, Valencia, Calif.), reversed transcribed into cDNA, and amplified using primer and probe mix for HCV 5′-NTR RNA and human ribosomal RNA (rRNA) in a one-step RT-PCR reaction as described previously (50). A relative quantification method was used to determine the extent of inhibition. The threshold cycle (Ct) of rRNA was subtracted from the Ct of HCV RNA (ΔCt). The average ΔCt of the DMSO cell controls was then subtracted from the ΔCt of the compound treated sample (ΔΔCt). Percent inhibition was determined by using the following equation: %=(1−(2^−ΔΔC^t))×100. For the luciferase-based replicon assay, luminescence was measured by using a Victor3 plate reader (Perkin-Elmer, Boston, Mass.) following the addition of Bright-Glo reagent as recommended by the manufacturer (Promega, Madison, Wis.). Percent inhibition of HCV replication was determined by comparing the change in luminescence of the drug treated wells versus the DMSO cell controls. EC50 and EC90 values, the concentrations at which 50% and 90% inhibition were achieved, were determined using the GraphPad Prism software (San Diego, Calif.).

[1] = Cell cytotoxicity assay (MTS), CC90 as reported in Table 1, cell line not stated; type: cell-based; details: human; cell line not given
Method: Cell cytotoxicity assays. Each compound (serially diluted from 100 μM) was added to Huh7 (2×10^3 cells/well), HepG2 (2×10^3 cells/well), BxPC3 (2×10^3 cells/well), or CEM (5×10^3 cells/well) cells and allowed to incubate for 8 days at 37° C. A medium only control was used to determine the minimum absorbance value […]. At the end of the growth period, MTS dye from the CellTiter 96 Aqueous One Solution Cell Proliferation Assay kit (Promega) was added to each well and the plate was incubated for an additional 2 hours. The absorbance at 490 nm was read with a Victor3 plate reader (Perkin Elmer) using the medium only control wells as blanks. The 90% inhibition value (CC90) was determined by comparing the absorbance in wells containing cells and test compound to untreated cell control wells.

SMILES | EC90 (HCV Replicon 1b) | CC90 at 8 days [1]
CCC[C@H]1CN(C(=O)c2cc(-c3ccc(Cl)c(F)c3)on2)[C@@H](CC(C)C)C(=O)N1 [Compound 158] | 440 nM | > 10000 nM
CC(C)C[C@H]1C(=O)N[C@@H](C2CCCCC2)CN1C(=O)c1cc(-c2ccc(Cl)c(F)c2)on1 [Compound 159] | 710 nM | > 10000 nM
CC(C)C[C@H]1C(=O)N[C@@H](C2CCCC2)CN1C(=O)c1cc(-c2ccc(Cl)c(F)c2)on1 [Compound 160] | 410 nM | > 10000 nM
CCC[C@H]1CN(C(=O)c2cc(-c3ccc(F)cc3)on2)[C@@H](CC(C)C)C(=O)N1 [Compound 161] | 70 nM | > 10000 nM
CC(C)C[C@H]1C(=O)N[C@@H](C2CCCCC2)CN1C(=O)c1cc(-c2ccc(F)cc2)on1 [Compound 162] | 1800 nM | > 10000 nM
CC(C)C[C@H]1C(=O)N[C@@H](C2CCCC2)CN1C(=O)c1cc(-c2ccc(F)cc2)on1 [Compound 163] | 90 nM | > 10000 nM
CCC[C@H]1CN(C(=O)c2cc(-c3ccc(F)cc3F)on2)[C@@H](CC(C)C)C(=O)N1 [Compound 165] | 340 nM | > 10000 nM
CC(C)C[C@H]1C(=O)N[C@@H](CC2CC2)CN1C(=O)c1cc(-c2ccc(Cl)cc2)on1 [Compound 166] | 360 nM | > 10000 nM
CC(C)C[C@H]1C(=O)N[C@@H](CC2CC2)CN1C(=O)c1cc(-c2ccc(F)cc2)on1 [Compound 167] | 450 nM | > 10000 nM
CC(C)C[C@H]1C(=O)N[C@@H](CC2CC2)CN1C(=O)c1cc(-c2cccs2)on1 [Compound 168] | 900 nM | > 10000 nM
CCC[C@H]1CN(C(=O)c2cc(-c3cccs3)on2)[C@@H](CC(C)C)C(=O)N1 [Compound 169] | 150 nM | > 10000 nM
CCC[C@H]1CN(C(=O)c2cc(-c3ccc(Cl)cc3)on2)[C@@H](CC(C)C)C(=O)N1 [Compound 170] | 50 nM | > 10000 nM
CC(C)C[C@H]1C(=O)N[C@@H](C2CCCCC2)CN1C(=O)c1cc(-c2ccc(Cl)cc2)on1 [Compound 171] | 150 nM | > 10000 nM
CC(C)C[C@H]1C(=O)N[C@@H](C2CCCCC2)CN1C(=O)c1cc(-c2cccs2)on1 [Compound 172] | 410 nM | > 10000 nM
CC(C)C[C@H]1C(=O)N[C@@H](C2CCCC2)CN1C(=O)c1cc(-c2ccc(Cl)cc2)on1 [Compound 173] | 120 nM | > 10000 nM
CC(C)C[C@H]1C(=O)N[C@@H](C2CCCC2)CN1C(=O)c1cc(-c2cccs2)on1 [Compound 174] | 250 nM | > 10000 nM
CC(C)C[C@H]1C(=O)N[C@@H](C(C)C)CN1C(=O)c1cc(-c2ccc(F)cc2)on1 [Compound 175] | 170 nM | > 10000 nM
CC(C)C[C@H]1CN(C(=O)c2cc(-c3ccc(S(C)(=O)=O)cc3)on2)[C@@H](CC(C)C)C(=O)N1 [Compound 176] | > 20000 nM | > 10000 nM
CC(C)C[C@H]1C(=O)N[C@@H](c2ccccc2)CN1C(=O)c1cc(-c2ccc(F)cc2)on1 [Compound 178] | 50 nM | > 10000 nM
CC(C)C[C@H]1CN(C(=O)c2cc(-c3ccc(OC(F)(F)F)cc3)on2)[C@@H](CC(C)C)C(=O)N1 [Compound 179] | 14900 nM | > 10000 nM
CC(C)C[C@H]1C(=O)N[C@@H](C2CC2)CN1C(=O)c1cc(-c2ccc(F)cc2)on1 [Compound 180] | 600 nM | > 10000 nM
CC(C)C[C@H]1C(=O)N[C@@H](C(C)C)CN1C(=O)c1cc(-c2ccc(Cl)cc2)on1 [Compound 181] | 230 nM | > 10000 nM
CSC[C@H]1CN(C(=O)c2cc(-c3ccc(Cl)cc3)on2)[C@@H](CC(C)C)C(=O)N1 [Compound 182] | 550 nM | > 10000 nM

SMILES | EC90 (HCV Replicon 1b) | CC90 at 8 days [1]
CC(C)C[C@H]1C(=O)N[C@@H](c2ccccc2)CN1C(=O)c1cc(-c2ccc(Cl)cc2)on1 [Compound 183] | 60 nM | > 10000 nM
CCC[C@H]1CN(C(=O)c2cc(-c3ccc(F)c(F)c3)on2)[C@@H](CC(C)C)C(=O)N1 [Compound 184] | 140 nM | > 10000 nM
CC(C)C[C@H]1C(=O)N[C@@H](C2CCCCC2)CN1C(=O)c1cc(-c2ccc(F)c(F)c2)on1 [Compound 185] | 610 nM | > 10000 nM
CC(C)C[C@H]1C(=O)N[C@@H](C2CCCC2)CN1C(=O)c1cc(-c2ccc(F)c(F)c2)on1 [Compound 186] | 260 nM | > 10000 nM
CC(C)C[C@H]1C(=O)N[C@@H](C(C)C)CN1C(=O)c1cc(-c2ccc(F)c(F)c2)on1 [Compound 187] | 620 nM | > 10000 nM
CC(C)C[C@H]1C(=O)N[C@@H](c2ccccc2)CN1C(=O)c1cc(-c2ccc(F)c(F)c2)on1 [Compound 188] | 180 nM | > 10000 nM
CCC[C@H]1CN(C(=O)c2cc(-c3ccc(F)cc3)no2)[C@@H](CC(C)C)C(=O)N1 [Compound 189] | 110 nM | > 10000 nM
CC(C)C[C@H]1CN(C(=O)c2cc(-c3ccc(Cl)cc3)no2)[C@@H](CC(C)C)C(=O)N1 [Compound 190] | 320 nM | > 10000 nM
CC(C)C[C@H]1C(=O)N[C@@H](CC2CC2)CN1C(=O)c1cc(-c2ccc(F)cc2)no1 [Compound 191] | 120 nM | > 10000 nM
CC(C)C[C@H]1C(=O)N[C@@H](C2CCCCC2)CN1C(=O)c1cc(-c2ccc(F)cc2)no1 [Compound 193] | 50 nM | > 10000 nM
CC(C)C[C@H]1C(=O)N[C@@H](C2CCCC2)CN1C(=O)c1cc(-c2ccc(F)cc2)no1 [Compound 194] | 40 nM | > 10000 nM
CC(C)C[C@H]1CN(Cc2cc(-c3ccccc3)on2)[C@@H](CC(C)C)C(=O)N1 [Compound 195] | 750 nM | > 10000 nM
CC(C)C[C@H]1CN(Cc2cc(-c3ccc(F)cc3)on2)[C@@H](CC(C)C)C(=O)N1 [Compound 196] | 80 nM | > 10000 nM
CC(C)C[C@H]1CN(Cc2cc(-c3ccc(Cl)cc3)on2)[C@@H](CC(C)C)C(=O)N1 [Compound 197] | 240 nM | > 10000 nM
CC(C)C[C@H]1CN(Cc2cc(-c3ccc(Br)cc3)on2)[C@@H](CC(C)C)C(=O)N1 [Compound 198] | 550 nM | > 10000 nM
Cc1ccc(-c2cc(CN3C[C@H](CC(C)C)NC(=O)[C@@H]3CC(C)C)no2)cc1 [Compound 199] | 2150 nM | > 10000 nM
COc1ccc(-c2cc(CN3C[C@H](CC(C)C)NC(=O)[C@@H]3CC(C)C)no2)cc1 [Compound 200, (3S,6S)-3,6-Diisobutyl-4-((5-(4-methoxyphenyl)isoxazol-3-yl)methyl)piperazin-2-one] | 5790 nM | > 10000 nM
CC(C)C[C@H]1CN(Cc2cc(-c3ccco3)on2)[C@@H](CC(C)C)C(=O)N1 [Compound 201, (3S,6S)-4-((5-(Furan-2-yl)isoxazol-3-yl)methyl)-3,6-diisobutylpiperazin-2-one] | 1820 nM | > 10000 nM
CC(C)C[C@H]1CN(Cc2cc(-c3cccs3)on2)[C@@H](CC(C)C)C(=O)N1 [Compound 202, (3S,6S)-3,6-Diisobutyl-4-((5-(thiophen-2-yl)isoxazol-3-yl)methyl)piperazin-2-one] | 880 nM | > 10000 nM
CC(C)C[C@H]1C(=O)N[C@@H](C(C)(C)C)CN1Cc1cc(-c2ccc(F)cc2)on1 [Compound 205, (3S,6S)-6-(tert-butyl)-4-((5-(4-fluorophenyl)isoxazol-3-yl)methyl)-3-isobutylpiperazin-2-one] | 8900 nM | > 10000 nM
CCC[C@H]1CN(Cc2cc(-c3ccc(F)cc3)on2)[C@@H](CC(C)C)C(=O)N1 [Compound 206, (3S,6S)-4-((5-(4-fluorophenyl)isoxazol-3-yl)methyl)-3-isobutyl-6-propylpiperazin-2-one] | 210 nM | > 10000 nM
CC(C)C[C@H]1C(=O)N[C@@H](C2CCCCC2)CN1Cc1cc(-c2ccc(F)cc2)on1 [Compound 207, (3S,6S)-6-cyclohexyl-4-((5-(4-fluorophenyl)isoxazol-3-yl)methyl)-3-isobutylpiperazin-2-one] | 860 nM | > 10000 nM
